# Laboratory results from patent publication US6737383B1, “Herbicidal oxadiazolidines” (priority 1999, dated 2004).
# Assays:
# [1] = test system: bedstraw; experiment: Test B pre/postemergence bedstraw; format: in vivo, Galium aparine
# Summary of the method: (§1)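 Test chemicals in a non-phytotoxic solvent mixture with surfactant were sprayed preemergence onto planted seeds and postemergence onto plants 2 to 18 cm tall (1- to 4-leaf stage). After twelve to sixteen days in a greenhouse, injury was visually rated against untreated controls from 0 (no effect) to 10 (complete control).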
# [2] = test system: velvetleaf; experiment: Test B pre/postemergence velvetleaf; format: in vivo, Abutilon theophrasti
# Summary of the method: as §1
# [3] = test system: crabgrass; experiment: Test B pre/postemergence crabgrass; format: in vivo, Digitaria sanguinalis
# Summary of the method: as §1
# [4] = test system: corn; experiment: Test B pre/postemergence corn; format: in vivo, Zea mays
# Summary of the method: as §1
# [5] = test system: surinam grass; experiment: Test B pre/postemergence surinam grass; format: in vivo, Brachiaria decumbens
# Summary of the method: as §1
# [6] = test system: blackgrass; experiment: Test B pre/postemergence blackgrass; format: in vivo, Alopecurus myosuroides
# Summary of the method: as §1
# [7] = test system: rape; experiment: Test B pre/postemergence rape; format: in vivo, Brassica napus
# Summary of the method: as §1
# [8] = test system: sugar beet; experiment: Test B pre/postemergence sugar beet; format: in vivo, Beta vulgaris
# Summary of the method: as §1
# [9] = test system: cocklebur; experiment: Test B pre/postemergence cocklebur; format: in vivo, Xanthium strumarium; conditions: for Cocklebur plant response rating: Postemergence; for Plant response rating, Cocklebur: Preemergence
# Summary of the method: as §1
# [10] = test system: duck salad; experiment: Test B flood test duck salad; format: in vivo, Heteranthera limosa; conditions: Rate 125 g/ha; Postemergence section (flood test species); scale 0 to 10, 0 no effect, 10 complete control
# Summary of the method: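 Each value is a visual injury score relative to controls, with 10 meaning complete control and 0 no effect. Evaluation took place twelve to sixteen days after the 2-leaf-stage plants were treated and kept in the greenhouse.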
# [11] = test system: giant foxtail; experiment: Test B pre/postemergence giant foxtail; format: in vivo, Setaria faberii
# Summary of the method: as §1
# [12] = test system: purple nutsedge; experiment: Test B pre/postemergence purple nutsedge; format: in vivo, Cyperus rotundus
# Summary of the method: as §1
# [13] = test system: wheat; experiment: Test B pre/postemergence wheat; format: in vivo, Triticum aestivum
# Summary of the method: as §1
# [14] = test system: morningglory; experiment: Test B pre/postemergence morningglory; format: in vivo, Ipomoea hederacea
# Summary of the method: as §1
# [15] = test system: pigweed; experiment: Test B pre/postemergence pigweed; format: in vivo, Amaranthus retroflexus
# Summary of the method: as §1
# [16] = test system: wild oat; experiment: Test B pre/postemergence wild oat; format: in vivo, Avena fatua
# Summary of the method: as §1
# [17] = test system: soybean; experiment: Test B pre/postemergence soybean; format: in vivo, Glycine max
# Summary of the method: as §1
# [18] = Postemergence, Rate 62 g/ha, scale 0 to 10, 0 is no effect, 10 is complete control
# [19] = Postemergence, Rate 250 g/ha, scale 0 to 10, 0 no effect, 10 complete control
# [20] = Preemergence, Rate 62 g/ha, scale 0 to 10, 0 is no effect, 10 is complete control
# [21] = Preemergence, Rate 125 g/ha, scale 0 to 10 (0 no effect, 10 complete control)
# [22] = Preemergence, Rate 250 g/ha, scale of 0 to 10 where 0 is no effect and 10 is complete control
# [23] = Preemergence, Rate 500 g/ha, scale 0 (no effect) to 10 (complete control)
# [24] = Rate 125 g/ha, Postemergence, scale 0 to 10, 0 no effect, 10 complete control
# [25] = Rate 500 g/ha, Postemergence, 0 to 10 scale (0 no effect, 10 complete control)
# [26] = Rate 62 g/ha, scale 0 to 10, 0 is no effect, 10 is complete control
smiles,measurement,setting,value
Cc1ccccc1-n1c(=O)on(C(=O)N(c2ccc(F)cc2)C2CC2)c1=O [Compound 37],Bedstraw plant response rating,[1]; [18],0
same,Bedstraw plant response rating,[1]; [19],0
same,"Plant response rating, Bedstraw",[1]; [20],0
same,"Plant response rating, Bedstraw",[1]; [21],0
same,"Plant response rating, Bedstraw",[1]; [22],0
same,Bedstraw plant response rating,[1]; [23],0
same,Bedstraw plant response rating,[1]; [24],0
same,Bedstraw plant response rating,[1]; [25],0
same,Velvetleaf plant response rating,[2]; [18],0
same,Velvetleaf plant response rating,[2]; [19],0
same,"Plant response rating, Velvetleaf",[2]; [20],0
same,"Plant response rating, Velvetleaf",[2]; [21],0
same,"Plant response rating, Velvetleaf",[2]; [22],0
same,Velvetleaf plant response rating,[2]; [23],0
same,Velvetleaf plant response rating,[2]; [24],0
same,Crabgrass plant response rating,[3]; [18],0
same,Crabgrass plant response rating,[3]; [19],0
same,"Plant response rating, Crabgrass",[3]; [20],0
same,"Plant response rating, Crabgrass",[3]; [21],0
same,"Plant response rating, Crabgrass",[3]; [22],3
same,Crabgrass plant response rating,[3]; [23],5
same,Crabgrass plant response rating,[3]; [24],0
same,Crabgrass plant response rating,[3]; [25],3
same,Corn plant response rating,[4]; [18],0
same,Corn plant response rating,[4]; [19],0
same,"Plant response rating, Corn",[4]; [20],0
same,"Plant response rating, Corn",[4]; [21],0
same,"Plant response rating, Corn",[4]; [22],0
same,Corn plant response rating,[4]; [23],0
same,Corn plant response rating,[4]; [24],0
same,Corn plant response rating,[4]; [25],0
same,B. signalgrass plant response rating,[5]; [18],0
same,B. signalgrass plant response rating,[5]; [19],0
same,"Plant response rating, B. signalgrass",[5]; [20],0
same,"Plant response rating, B. signalgrass",[5]; [21],0
same,"Plant response rating, B. signalgrass",[5]; [22],0
same,B. signalgrass plant response rating,[5]; [23],0
same,B. signalgrass plant response rating,[5]; [24],0
same,B. signalgrass plant response rating,[5]; [25],0
same,Blackgrass plant response rating,[6]; [18],0
same,Blackgrass plant response rating,[6]; [19],0
same,"Plant response rating, Blackgrass",[6]; [20],0
same,"Plant response rating, Blackgrass",[6]; [21],0
same,"Plant response rating, Blackgrass",[6]; [22],0
same,Blackgrass plant response rating,[6]; [23],0
same,Blackgrass plant response rating,[6]; [24],0
same,Blackgrass plant response rating,[6]; [25],0
same,Rape plant response rating,[7]; [18],0
same,Rape plant response rating,[7]; [19],0
same,"Plant response rating, Rape",[7]; [20],0
same,"Plant response rating, Rape",[7]; [21],0
same,"Plant response rating, Rape",[7]; [22],0
same,Rape plant response rating,[7]; [23],0
same,Rape plant response rating,[7]; [24],0
same,Rape plant response rating,[7]; [25],0
same,Sugarbeets plant response rating,[8]; [18],0
same,Sugarbeets plant response rating,[8]; [19],0
same,"Plant response rating, Sugarbeets",[8]; [20],0
same,"Plant response rating, Sugarbeets",[8]; [21],0
same,"Plant response rating, Sugarbeets",[8]; [22],0
same,Sugarbeets plant response rating,[8]; [23],0
same,Sugarbeets plant response rating,[8]; [24],0
same,Cocklebur plant response rating,[9]; [26],0
same,Cocklebur plant response rating,"[9]; Rate 250 g/ha, scale 0 to 10, 0 no effect, 10 complete control",0
same,"Plant response rating, Cocklebur",[9]; [26],0
same,"Plant response rating, Cocklebur","[9]; Rate 125 g/ha, scale 0 to 10 (0 no effect, 10 complete control)",0
same,"Plant response rating, Cocklebur","[9]; Rate 250 g/ha, scale of 0 to 10 where 0 is no effect and 10 is complete control",0
same,Cocklebur plant response rating,"[9]; Rate 125 g/ha, scale 0 to 10, 0 no effect, 10 complete control",0
same,Cocklebur plant response rating,"[9]; Rate 500 g/ha, 0 to 10 scale (0 no effect, 10 complete control)",1
same,Ducksalad plant response rating,[10],0
same,Giant foxtail plant response rating,[11]; [18],0
same,Giant foxtail plant response rating,[11]; [19],0
same,"Plant response rating, Giant foxtail",[11]; [20],0
same,"Plant response rating, Giant foxtail",[11]; [21],0
same,"Plant response rating, Giant foxtail",[11]; [22],2
same,Giant foxtail plant response rating,[11]; [23],3
same,Giant foxtail plant response rating,[11]; [24],0
same,Giant foxtail plant response rating,[11]; [25],0
same,Nutsedge plant response rating,[12]; [18],0
same,Nutsedge plant response rating,[12]; [19],0
same,"Plant response rating, Nutsedge",[12]; [20],0
same,"Plant response rating, Nutsedge",[12]; [21],0
same,"Plant response rating, Nutsedge",[12]; [22],0
same,Nutsedge plant response rating,[12]; [23],0
same,Nutsedge plant response rating,[12]; [24],0
same,Wheat plant response rating,[13]; [18],0
same,Wheat plant response rating,[13]; [19],0
same,"Plant response rating, Wheat",[13]; [20],0
same,"Plant response rating, Wheat",[13]; [21],0
same,"Plant response rating, Wheat",[13]; [22],0
same,Wheat plant response rating,[13]; [23],0
same,Wheat plant response rating,[13]; [24],0
same,Morningglory plant response rating,[14]; [18],0
same,Morningglory plant response rating,[14]; [19],0
same,"Plant response rating, Morningglory",[14]; [20],0
same,"Plant response rating, Morningglory",[14]; [21],0
same,"Plant response rating, Morningglory",[14]; [22],0
same,Morningglory plant response rating,[14]; [23],0
same,Morningglory plant response rating,[14]; [24],0
same,Morningglory plant response rating,[14]; [25],1
same,Redroot pigweed plant response rating,[15]; [18],0
same,Redroot pigweed plant response rating,[15]; [19],0
same,"Plant response rating, Redroot pigweed",[15]; [20],0
same,"Plant response rating, Redroot pigweed",[15]; [21],0
same,"Plant response rating, Redroot pigweed",[15]; [22],0
same,Redroot pigweed plant response rating,[15]; [23],0
same,Redroot pigweed plant response rating,[15]; [24],0
same,Redroot pigweed plant response rating,[15]; [25],0
same,Wild oats plant response rating,[16]; [18],0
same,Wild oats plant response rating,[16]; [19],0
same,"Plant response rating, Wild oats",[16]; [21],0
same,"Plant response rating, Wild oats",[16]; [22],0
same,Wild oats plant response rating,[16]; [23],0
same,Wild oats plant response rating,[16]; [24],0
same,Soybean plant response rating,[17]; [18],0
same,Soybean plant response rating,[17]; [19],0
same,"Plant response rating, Soybean",[17]; [20],0
same,"Plant response rating, Soybean",[17]; [21],0
same,"Plant response rating, Soybean",[17]; [22],0
same,Soybean plant response rating,[17]; [23],0
same,Soybean plant response rating,[17]; [24],0
